Experimental data reported in publication PMC10817917, “Alkyl deoxyglycoside-polymyxin combinations against critical priority carbapenem-resistant gram-negative bacteria” (Scientific Reports, 2024).
“And” between values parts separate entries of the source, which are not always exact repeats. Equal values may be shown once. Read-outs that look alike come from different tables or passages of the source.

Legend:
[1] = tested on: A. baumannii CQ4322; test: Broth microdilution MIC/MBC, glycosides with or without polymyxins; format: cell-based, Acinetobacter baumannii; conditions: for MIC: Acinetobacter baumannii, CQ4322
[2] = tested on: P. aeruginosa CQ4924; test: Broth microdilution MIC, glycosides with or without polymyxins; format: cell-based, Pseudomonas aeruginosa; conditions: for MIC: Pseudomonas aeruginosa, CQ4924
[3] = tested on: K. pneumoniae CQ1947; test: as above; format: cell-based, Klebsiella pneumoniae; conditions: for MIC: Klebsiella pneumoniae, CQ1947
[4] = tested on: E. coli ATCC 25922; test: Broth microdilution MIC/MBC, glycosides with or without polymyxins; format: cell-based, Escherichia coli; conditions: for MIC: Escherichia coli, ATCC25922
[5] = alone, read-out: MICA (MIC of each compound individually)
[6] = combination with the lowest FICI
[7] = compound + colistin, lowest FICI

Compound: CCCCCCCCCCCC[C@H]1O[C@H](C)C[C@H](O)[C@H]1O [Compound 5, 1-(4,6-dideoxy-α-D-xylo-hexopyranosyl)dodecane]
- MIC ([1]; agent alone, no adjuvant (polymyxin conc. 0), strain G, read-out: MIC): > 100 µg/mL
- MIC [1, 5]: > 100 µg/mL
- MIC of colistin in combination with the compound ([1]; Cpd conc. 0.4 μg/mL, strain G): > 0.5 µg/mL
- MIC of colistin in combination with the compound ([1]; Cpd conc. 0.8 μg/mL, strain G): 0.5 µg/mL
- MIC of colistin in combination with the compound ([1]; Cpd conc. 3.125 μg/mL, strain G): 0.25 µg/mL
- MIC of colistin in combination with the compound ([1]; Cpd conc. 6.25 μg/mL, strain G): 0.25 µg/mL
- MIC of colistin in combination with the compound ([1]; Cpd conc. 12.5 μg/mL, strain G): 0.25 µg/mL
- MIC of colistin in combination with the compound ([1]; Cpd conc. […], strain G): 0.5 µg/mL
- MIC of compound in combination with PMB ([1]; PMB 0.25 μg/mL, strain G): > 100 µg/mL
- MIC of compound in combination with PMB ([1]; PMB 0.5 μg/mL, strain G): 3.1 µg/mL
- MIC of compound in combination with colistin ([1]; colistin 0.06 μg/mL, strain G): > 100 µg/mL
- MBC of compound in combination with colistin ([1]; colistin 0.125 μg/mL, strain G): 25|25 μg/mL
- MIC of compound in combination with colistin ([1]; colistin 0.125 μg/mL, strain G): 25 μg/mL and 25|25 μg/mL
- MIC of compound in combination with colistin ([1]; colistin 0.25 μg/mL, strain G): 3.1 µg/mL
- MIC of compound in combination with colistin ([1]; colistin 0.5 μg/mL, strain G): 0.8 µg/mL
- MICA(A + B) (MIC of compound in combination with colistin) [1, 6]: 25 µg/mL
- MICB(A + B) (MIC of colistin in combination with compound) [1, 6]: 0.125 µg/mL
- FICI [1, 7]: 0.38
- MIC of colistin in combination with the compound ([2]; Cpd conc. 0.4 μg/mL, strain H): > 0.5 µg/mL
- MIC of colistin in combination with the compound ([2]; Cpd conc. 0.8 μg/mL, strain H): > 0.5 µg/mL
- MIC of colistin in combination with the compound ([2]; Cpd conc. 3.125 μg/mL, strain H): 0.5 µg/mL
- MIC of colistin in combination with the compound ([2]; Cpd conc. 6.25 μg/mL, strain H): 0.5 µg/mL
- MIC of colistin in combination with the compound ([2]; Cpd conc. 12.5 μg/mL, strain H): 0.5 µg/mL
- MIC of colistin in combination with the compound ([2]; Cpd conc. […], strain H): > 0.5 µg/mL
- MIC of compound in combination with PMB ([2]; PMB 0.25 μg/mL, strain H): > 100 µg/mL
- MIC of compound in combination with PMB ([2]; PMB 0.5 μg/mL, strain H): 6.3 µg/mL
- MIC ([2]; agent alone, no adjuvant (polymyxin conc. 0), strain H, read-out: MIC): > 100 µg/mL
- MIC [2, 5]: > 100 µg/mL
- MIC of compound in combination with colistin ([2]; colistin 0.06 μg/mL, strain H): > 100 µg/mL
- MIC of compound in combination with colistin ([2]; colistin 0.125 μg/mL, strain H): > 100 µg/mL
- MIC of compound in combination with colistin ([2]; colistin 0.25 μg/mL, strain H): > 100 µg/mL
- MIC of compound in combination with colistin ([2]; colistin 0.5 μg/mL, strain H): 3.1 µg/mL
- MICA(A + B) (MIC of compound in combination with colistin) [2, 6]: 3.125 µg/mL
- MICB(A + B) (MIC of colistin in combination with compound) [2, 6]: 0.5 µg/mL
- Interpretation (of FICI) ([2]; compound + colistin): Additive (from 0.5 to 1.0 were additive)
- FICI [2, 7]: 0.52
- MIC of colistin in combination with the compound ([3]; Cpd conc. 0.4 μg/mL, strain F): 0.5 µg/mL
- MIC of colistin in combination with the compound ([3]; Cpd conc. 0.8 μg/mL, strain F): 0.5 µg/mL
- MIC of colistin in combination with the compound ([3]; Cpd conc. 3.125 μg/mL, strain F): 0.25 µg/mL
- MIC of colistin in combination with the compound ([3]; Cpd conc. 6.25 μg/mL, strain F): 0.25 µg/mL
- MIC of colistin in combination with the compound ([3]; Cpd conc. 12.5 μg/mL, strain F): 0.25 µg/mL
- MIC of colistin in combination with the compound ([3]; Cpd conc. […], strain F): 0.5 µg/mL
- MIC ([3]; agent alone, no adjuvant (polymyxin conc. 0), strain F, read-out: MIC): > 100 µg/mL
- MIC [3, 5]: > 100 µg/mL
- MIC of compound in combination with PMB ([3]; PMB 0.25 μg/mL, strain F): > 100 µg/mL
- MIC of compound in combination with PMB ([3]; PMB 0.5 μg/mL, strain F): 3.1 µg/mL
- MIC of compound in combination with colistin ([3]; colistin 0.06 μg/mL, strain F): > 100 µg/mL
- MIC of compound in combination with colistin ([3]; colistin 0.125 μg/mL, strain F): > 100 µg/mL
- MIC of compound in combination with colistin ([3]; colistin 0.5 μg/mL, strain F): 0.2 µg/mL
- MICA(A + B) (MIC of compound in combination with colistin) [3, 6]: 3.125 µg/mL
- MICB(A + B) (MIC of colistin in combination with compound) [3, 6]: 0.25 µg/mL
- Interpretation (of FICI) ([3]; compound + colistin): Additive (from 0.5 to 1.0 were additive)
- FICI [3, 7]: 0.52
- MIC of colistin in combination with the compound ([4]; Cpd conc. 0.4 μg/mL, strain A): > 0.5 µg/mL
- MIC of colistin in combination with the compound ([4]; Cpd conc. 0.8 μg/mL, strain A): > 0.5 µg/mL
- MIC of colistin in combination with the compound ([4]; Cpd conc. 3.125 μg/mL, strain A): 0.25 µg/mL
- MIC of colistin in combination with the compound ([4]; Cpd conc. 6.25 μg/mL, strain A): 0.125 µg/mL
- MIC of colistin in combination with the compound ([4]; Cpd conc. 12.5 μg/mL, strain A): ≤ 0.06 µg/mL
- MIC of colistin in combination with the compound ([4]; Cpd conc. […], strain A): 0.5 µg/mL
- MIC ([4]; agent alone, no adjuvant (polymyxin conc. 0), strain A, read-out: MIC): > 100 µg/mL
- MIC [4, 5]: > 100 µg/mL
- MIC of compound in combination with PMB ([4]; PMB 0.25 μg/mL, strain A): 3.1 µg/mL
- MIC of compound in combination with PMB ([4]; PMB 0.5 μg/mL, strain A): 3.1 µg/mL
- MIC of compound in combination with colistin ([4]; colistin 0.06 μg/mL, strain A): 12.5 µg/mL
- MBC of compound in combination with colistin ([4]; colistin 0.125 μg/mL, strain A): 6.3|6.3 μg/mL
- MIC of compound in combination with colistin ([4]; colistin 0.125 μg/mL, strain A): 6.3 μg/mL and 6.3|6.3 μg/mL
- MIC of compound in combination with colistin ([4]; colistin 0.25 μg/mL, strain A): 3.1 µg/mL
- MIC of compound in combination with colistin ([4]; colistin 0.5 μg/mL, strain A): 1.6 µg/mL
- MICA(A + B) (MIC of compound in combination with colistin) [4, 6]: 12.5 µg/mL
- MICB(A + B) (MIC of colistin in combination with compound) [4, 6]: 0.06 µg/mL
- Interpretation (of FICI) ([4]; compound + colistin): Synergy (Values ≤ 0.5 were considered synergistic)
- FICI [4, 7]: 0.18
